Source: PubChem BioAssay (NCI)
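Exposure lasted 48 hours, with cells grown in 96-well plates and compounds tested at five concentrations. At the GI50, growth is halved. At the TGI there is no net growth.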

Legend:
Experiment in all cases: DTP human tumour cell line panel, 48 h
[1] = system: HOP-92 NSCLC
[2] = system: CCRF-CEM leukemia
[3] = system: NCI-H460 lung
[4] = system: OVCAR-5 ovarian
[5] = system: SNB-19 CNS
[6] = system: SK-MEL-2 melanoma
[7] = system: HCT-116 colon
[8] = system: MCF7 breast

| SMILES | TGI [1] [µM] | TGI [2] [µM] | TGI [3] [µM] | TGI [4] [µM] | TGI [5] [µM] | TGI [6] [µM] | TGI [7] [µM] | GI50 [1] [µM] | GI50 [2] [µM] | GI50 [3] [µM] | GI50 [4] [µM] | GI50 [5] [µM] | GI50 [6] [µM] | GI50 [8] [µM] | TGI [8] [µM] | GI50 [7] [µM] |
| --- | --- | --- | --- | --- | --- | --- | --- | --- | --- | --- | --- | --- | --- | --- | --- | --- |
| NC1=NN(c2ccccc2)C(=O)C1/C(=N\NC(=O)c1cc2ccccc2cc1O)C(=O)Nc1ccc(Cl)cc1 (stereo not drawn) | 71.3 | 24.4 | > 100 | > 100 | > 100 | > 100 | > 100 | – | – | – | – | – | – | – | – | – |
| CCOC(=O)Oc1ccc2[nH]c3c(C)cc(N)c(C)c3c2c1 | – | > 100 | > 100 | > 100 | > 100 | > 100 | > 100 | – | – | – | – | – | – | – | – | – |
| CC(C)=NO.CC(C)=NO.CC(C)=NO.CC(C)=NO.[Ti] | > 100 | > 100 | > 100 | > 100 | > 100 | > 100 | – | > 100 | > 100 | > 100 | > 100 | > 100 | > 100 | – | – | – |
| Nc1ccc2ncc(Nc3ccc(Cl)c(Cl)c3)nc2c1 | 52.3 | 65.6 | > 100 | > 100 | 81.4 | > 100 | 57.3 | – | – | – | – | – | – | – | – | – |
| O=C(Nc1ccccc1)Oc1ccccc1C1CCCCC1 | 31.3 | 67.3 | 60 | > 100 | > 100 | – | 90.2 | – | – | – | – | – | – | – | – | – |
| Cn1nc(-c2ccccc2)c(C(=O)/C=C/c2ccccc2)c(N2CCCC2)c1=O | 6.23 | 40.6 | 32.4 | – | – | – | 19.2 | – | – | – | – | – | – | – | – | – |
| CC1=CC(=O)N2[C@H](OC[C@@H]2C(C)C)O1 | > 100 | > 100 | > 100 | – | > 100 | > 100 | > 100 | – | – | – | – | – | – | – | – | – |
| CN1OC(CO)CC12C1CC3CC(C1)CC2C3 (stereo not drawn) | > 100 | > 100 | > 100 | > 100 | > 100 | > 100 | > 100 | – | – | – | – | – | – | – | – | – |
| Cn1c(=O)c(-c2c(Cl)cccc2Cl)cc2cnc(Nc3ccc(N4CCOCC4)cc3)nc21 | 1.93 | 0.332 | – | 0.799 | > 22.6 | > 100 | 0.148 | 0.211 | 0.0272 | 0.57 | 0.0349 | 0.561 | 2.48 | 1.49 | > 100 | < 0.01 |
| COc1cccc(OC)c1/C=N\N1C(=O)c2ccccc2C1=O | > 100 | > 100 | > 100 | > 100 | > 100 | > 100 | 87.6 | – | – | – | – | – | – | – | – | – |
| Cc1cc2c(=O)cc(-c3ccncc3)oc2c(C(=O)O)c1C | > 100 | > 100 | > 100 | > 100 | > 100 | > 100 | > 100 | – | – | – | – | – | – | – | – | – |
| CC(=O)OCC1OC(OC(C)=O)C(NC#N)C(OC(C)=O)C1OC(C)=O (stereo not drawn) | > 100 | > 100 | > 100 | > 100 | > 100 | > 100 | > 100 | – | – | – | – | – | – | – | – | – |
| CCNC(=O)O/N=C1/C=C2CC[C@@H]3C(CC[C@@]4(C)C3CC[C@@H]4OC(=O)NCC)[C@@]2(C)CC1 (stereo partly drawn) | 16.7 | – | 12.5 | 20 | 8.21 | 5.1 | 12.2 | – | – | – | – | – | – | – | – | – |
| COC(=O)N/N=C(\c1nc2ccc(Cl)cc2[nH]c1=O)C(O)c1ccc([N+](=O)[O-])cc1 (stereo not drawn) | > 100 | > 100 | > 100 | > 100 | > 100 | – | > 100 | – | – | – | – | – | – | – | – | – |
| O=c1cccccc1[O-].O=c1cccccc1[O-].O=c1cccccc1[O-].[Dy+3] | > 100 | 55.2 | > 100 | > 100 | > 100 | > 100 | 41.4 | – | – | – | – | – | – | – | – | – |
| O=[N+]([O-])C1(CO)COC(CCc2ccccc2)OC1 (stereo not drawn) | > 100 | > 100 | > 100 | > 100 | – | > 100 | > 100 | – | – | – | – | – | – | – | – | – |
| COC(=O)C1=C(C)C(=O)C2(CCCCCC2C(=O)OC)C1 (stereo not drawn) | > 100 | > 100 | > 100 | > 100 | > 100 | > 100 | > 100 | – | – | – | – | – | – | – | – | – |
| Cc1[nH]n(C(=O)c2ccc(Cl)cc2)c(=O)c1/C=C1\C(O)=CC(=O)c2ccccc21 | > 100 | > 100 | > 100 | > 100 | > 100 | > 100 | > 100 | – | – | – | – | – | – | – | – | – |
| Cc1c(C(=O)C/C(=N/NC(=O)CC#N)C(N)=O)[n+](=O)c2ccccc2n1[O-] | > 100 | > 100 | > 100 | > 100 | > 100 | > 100 | 94 | – | – | – | – | – | – | – | – | – |
| CC1=C2[C@@H](c3ccccc3)C3C=CC2(C=C3C(F)(F)F)N(C(=O)NC2CCCCC2)C1=O (stereo partly drawn) | > 100 | > 100 | > 100 | > 100 | > 100 | – | > 100 | – | – | – | – | – | – | – | – | – |
